Results on 23 molecules are retold here after US11987588B2, “Modulators of the beta-3 adrenergic receptor useful for the treatment or prevention of heart failure and disorders related thereto” (Arena Pharmaceuticals, Inc., priority 2017, dated 2024).

Broadly, the IC50 is the concentration at which inhibition is half-maximal.

Sequence of Beta-3 Adrenergic Receptor (P13945 whole entry, species assumed): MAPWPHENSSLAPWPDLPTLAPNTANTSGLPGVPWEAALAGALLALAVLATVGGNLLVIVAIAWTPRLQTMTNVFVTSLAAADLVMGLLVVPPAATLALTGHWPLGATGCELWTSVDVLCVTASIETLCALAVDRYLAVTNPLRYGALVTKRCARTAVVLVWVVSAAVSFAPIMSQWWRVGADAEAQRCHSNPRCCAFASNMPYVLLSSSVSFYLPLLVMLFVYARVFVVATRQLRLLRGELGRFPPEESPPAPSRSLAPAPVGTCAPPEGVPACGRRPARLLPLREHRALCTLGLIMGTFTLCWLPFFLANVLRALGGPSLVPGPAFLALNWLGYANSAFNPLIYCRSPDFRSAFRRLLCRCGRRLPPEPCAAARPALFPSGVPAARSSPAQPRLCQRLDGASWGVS

The target in the assay is Beta-3 Adrenergic Receptor (Homo sapiens (Human), UniProt P13945). Nature of the assay: Homogeneous Time-Resolved Fluorescence (HTRF) cAMP antagonist assay, IC50 determination. In kind it is cell-based. The following applies: CHO-K1 cells stably expressing recombinant receptor, isoproterenol at EC90. Put shortly:
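CHO-K1 cells stably expressing the recombinant receptor were preincubated with compound (10-point, 5-fold dilutions; top final typically 10 or 100 μM) in PBS with 1 mM IBMX, then stimulated with isoproterenol at its EC90 for 1 h at room temperature. cAMP was read by HTRF against an on-plate standard curve.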
Take `CCN1CCOc2ccc(S(=O)(=O)N3CCC4(CC3)C[C@H](NC[C@H](O)COc3cccc(S(=O)(=O)NC)c3)CO4)cc21` [Compound 350, 3-((S)-3-((S)-8-(4-ethyl-3,4-dihydro-2H-benzo[b][1,4]oxazin-6-ylsulfonyl)-1-oxa-8-azaspiro[4.5]decan-3-ylamino)-2-hydroxypropoxy)-N-methylbenzenesulfonamide]: the IC50 was 21.8 nM.
In the case of `CCN1CCOc2ccc(S(=O)(=O)N3CCC4(CC3)C[C@@H](NC[C@H](O)COc3cccc(S(=O)(=O)NC)c3)CO4)cc21` [Compound 351, 3-((S)-3-((R)-8-(4-ethyl-3,4-dihydro-2H-benzo[b][1,4]oxazin-6-ylsulfonyl)-1-oxa-8-azaspiro[4.5]decan-3-ylamino)-2-hydroxypropoxy)-N-methylbenzenesulfonamide] it was 38.6 nM.
In the case of `CNS(=O)(=O)c1cccc(OC[C@@H](O)CNC2COC3(CCN(S(=O)(=O)c4cccc(-c5ccc(CNC(=O)CC(=O)O)cc5)c4)CC3)C2)c1` (stereo partly drawn) [Compound 352, 3-((3′-(3-((S)-2-hydroxy-3-(3-(N-methylsulfamoyl)phenoxy)propylamino)-1-oxa-8-azaspiro[4.5]decan-8-ylsulfonyl)biphenyl-4-yl)methylamino)-3-oxopropanoic acid] it was 167 nM.
In the case of `CNS(=O)(=O)c1cccc(OC[C@@H](O)CNC2COC3(CCN(S(=O)(=O)c4cccc(-c5ccc(CNC(=O)CN)cc5)c4)CC3)C2)c1` (stereo partly drawn) [Compound 353, 2-amino-N-((3′-(3-((S)-2-hydroxy-3-(3-(N-methylsulfamoyl)phenoxy)propylamino)-1-oxa-8-azaspiro[4.5]decan-8-ylsulfonyl)biphenyl-4-yl)methyl)acetamide] it was 58 nM; in that of `CNS(=O)(=O)c1cccc(OC[C@@H](O)CNC2COC3(CCN(S(=O)(=O)c4cccc(-c5ccc(CNC(=O)C(N)=O)cc5)c4)CC3)C2)c1` (stereo partly drawn) [Compound 354, N^1-((3′-(3-((S)-2-hydroxy-3-(3-(N-methylsulfamoyl)phenoxy)propylamino)-1-oxa-8-azaspiro[4.5]decan-8-ylsulfonyl)biphenyl-4-yl)methyl)oxalamide], 35.2 nM.
Take `CNS(=O)(=O)c1cccc(OC[C@@H](O)CNC2COC3(CCN(S(=O)(=O)c4ccc5c(c4)NCCO5)CC3)C2)c1` (stereo partly drawn) [Compound 355, 3-((2S)-3-(8-(3,4-dihydro-2H-benzo[b][1,4]oxazin-6-ylsulfonyl)-1-oxa-8-azaspiro[4.5]decan-3-ylamino)-2-hydroxypropoxy)-N-methylbenzenesulfonamide]: the 50% inhibitory concentration (IC50) came out at 17.2 nM.
In the case of `O=S(=O)(NCCF)c1cccc(OC[C@@H](O)CNC2COC3(CCN(S(=O)(=O)c4ccc5ccccc5c4)CC3)C2)c1` (stereo partly drawn) [Compound 356, N-(2-fluoroethyl)-3-((2S)-2-hydroxy-3-(8-(naphthalen-2-ylsulfonyl)-1-oxa-8-azaspiro[4.5]decan-3-ylamino)propoxy)benzenesulfonamide] it was 16.9 nM; in that of `CNS(=O)(=O)c1cccc(OC[C@@H](O)CNC2COC3(CCN(S(=O)(=O)c4cc(-c5ccc(CN)cc5)ccc4OC)CC3)C2)c1` (stereo partly drawn) [Compound 357, 3-((2S)-3-(8-(4′-(aminomethyl)-4-methoxybiphenyl-3-ylsulfonyl)-1-oxa-8-azaspiro[4.5]decan-3-ylamino)-2-hydroxypropoxy)-N-methylbenzenesulfonamide], 15.7 nM; in that of `CNS(=O)(=O)c1cccc(OC[C@@H](O)CNC2COC3(CCN(S(=O)(=O)c4cc(-c5ccc(CN)cc5)cc5c4OCC5)CC3)C2)c1` (stereo partly drawn) [Compound 358, 3-((2S)-3-(8-(5-(4-(aminomethyl)phenyl)-2,3-dihydrobenzofuran-7-ylsulfonyl)-1-oxa-8-azaspiro[4.5]decan-3-ylamino)-2-hydroxypropoxy)-N-methylbenzenesulfonamide], 16.1 nM.
Regarding `CNS(=O)(=O)c1cccc(OC[C@@H](O)CN[C@@H]2COC3(CCN(S(=O)(=O)c4cccc(-c5ccc(CNC(C)C)cc5)c4)CC3)C2)c1` [Compound 359, 3-((S)-2-hydroxy-3-((S)-8-(4′-((isopropylamino)methyl)biphenyl-3-ylsulfonyl)-1-oxa-8-azaspiro[4.5]decan-3-ylamino)propoxy)-N-methylbenzenesulfonamide], the IC50 stood at 17.9 nM.
Consider `CNS(=O)(=O)c1cccc(OC[C@@H](O)CN[C@@H]2COC3(CCN(S(=O)(=O)c4cccc(-c5ccc(CNCC(C)C)cc5)c4)CC3)C2)c1` [Compound 360, 3-((S)-2-hydroxy-3-((S)-8-(4′-((isobutylamino)methyl)biphenyl-3-ylsulfonyl)-1-oxa-8-azaspiro[4.5]decan-3-ylamino)propoxy)-N-methylbenzenesulfonamide], for which the IC50 was found to be 20.5 nM.
With `CNS(=O)(=O)c1cccc(OC[C@@H](O)CN[C@@H]2COC3(CCN(S(=O)(=O)c4cccc(-c5ccc(CNCCC(C)C)cc5)c4)CC3)C2)c1` [Compound 361, 3-((S)-2-hydroxy-3-((S)-8-(4′-((isopentylamino)methyl)biphenyl-3-ylsulfonyl)-1-oxa-8-azaspiro[4.5]decan-3-ylamino)propoxy)-N-methylbenzenesulfonamide] the figure was 22.1 nM.
In the case of `CNS(=O)(=O)c1cccc(OC[C@@H](O)CN[C@H]2COC3(CCN(S(=O)(=O)c4cccc(-c5ccc(CNC(C)C)cc5)c4)CC3)C2)c1` [Compound 362, 3-((S)-2-hydroxy-3-((R)-8-(4′-((isopropylamino)methyl)biphenyl-3-ylsulfonyl)-1-oxa-8-azaspiro[4.5]decan-3-ylamino)propoxy)-N-methylbenzenesulfonamide] it was 27.5 nM; in that of `CNS(=O)(=O)c1cccc(OC[C@@H](O)CN[C@H]2COC3(CCN(S(=O)(=O)c4cccc(-c5ccc(CNCC(C)C)cc5)c4)CC3)C2)c1` [Compound 363, 3-((S)-2-hydroxy-3-((R)-8-(4′-((isobutylamino)methyl)biphenyl-3-ylsulfonyl)-1-oxa-8-azaspiro[4.5]decan-3-ylamino)propoxy)-N-methylbenzenesulfonamide], 123 nM.
With `CNS(=O)(=O)c1cccc(OC[C@@H](O)CN[C@H]2COC3(CCN(S(=O)(=O)c4cccc(-c5ccc(CNCCC(C)C)cc5)c4)CC3)C2)c1` [Compound 364, 3-((S)-2-hydroxy-3-((R)-8-(4′-((isopentylamino)methyl)biphenyl-3-ylsulfonyl)-1-oxa-8-azaspiro[4.5]decan-3-ylamino)propoxy)-N-methylbenzenesulfonamide] the figure was 144 nM.
On to `CNS(=O)(=O)c1cccc(OC[C@@H](O)CNC2COC3(CCN(S(=O)(=O)c4cc(-c5ccc(CN)cc5)ccc4C)CC3)C2)c1` (stereo partly drawn) [Compound 365, 3-((2S)-3-(8-(4′-(aminomethyl)-4-methylbiphenyl-3-ylsulfonyl)-1-oxa-8-azaspiro[4.5]decan-3-ylamino)-2-hydroxypropoxy)-N-methylbenzenesulfonamide], for which the IC50 worked out at 20.7 nM.
Regarding `CNS(=O)(=O)c1cccc(OC[C@@H](O)CNC2COC3(CCN(S(=O)(=O)c4ccc(OC)c(-c5ccc(CN)cc5)c4)CC3)C2)c1` (stereo partly drawn) [Compound 366, 3-((2S)-3-(8-(4′-(aminomethyl)-6-methoxybiphenyl-3-ylsulfonyl)-1-oxa-8-azaspiro[4.5]decan-3-ylamino)-2-hydroxypropoxy)-N-methylbenzenesulfonamide], the IC50 was 27.5 nM.
Regarding `CNS(=O)(=O)c1cccc(OC[C@@H](O)CNC2COC3(CCN(S(=O)(=O)c4cc(-c5ccc(CN)cc5)cc(C(F)(F)F)c4)CC3)C2)c1` (stereo partly drawn) [Compound 367, 3-((2S)-3-(8-(4′-(aminomethyl)-5-(trifluoromethyl)biphenyl-3-ylsulfonyl)-1-oxa-8-azaspiro[4.5]decan-3-ylamino)-2-hydroxypropoxy)-N-methylbenzenesulfonamide], the IC50 came to 31.2 nM.
With `CNS(=O)(=O)c1cccc(OC[C@@H](O)CNC2COC3(CCN(S(=O)(=O)c4cccc(-c5ccc(C(N)=O)cc5)c4)CC3)C2)c1` (stereo partly drawn) [Compound 368, 3′-(3-((S)-2-hydroxy-3-(3-(N-methylsulfamoyl)phenoxy)propylamino)-1-oxa-8-azaspiro[4.5]decan-8-ylsulfonyl)biphenyl-4-carboxamide] the figure was 35.2 nM; with `CNS(=O)(=O)c1cccc(OC[C@@H](O)CNC2COC3(CCN(S(=O)(=O)c4cccc(-c5ccc(CN)s5)c4)CC3)C2)c1` (stereo partly drawn) [Compound 369, 3-((2S)-3-(8-(3-(5-(aminomethyl)thiophen-2-yl)phenylsulfonyl)-1-oxa-8-azaspiro[4.5]decan-3-ylamino)-2-hydroxypropoxy)-N-methylbenzenesulfonamide], 14.6 nM; with `CNS(=O)(=O)c1cccc(OC[C@@H](O)CNC2COC3(CCN(S(=O)(=O)c4cccc(-c5cncc(C#N)c5)c4)CC3)C2)c1` (stereo partly drawn) [Compound 370, 3-((2S)-3-(8-(3-(5-cyanopyridin-3-yl)phenylsulfonyl)-1-oxa-8-azaspiro[4.5]decan-3-ylamino)-2-hydroxypropoxy)-N-methylbenzenesulfonamide], 47.8 nM.
`CNS(=O)(=O)c1cccc(OC[C@@H](O)CNC2COC3(CCN(S(=O)(=O)c4cccc(-c5ccc(NCCN6CCOCC6)nc5)c4)CC3)C2)c1` (stereo partly drawn) [Compound 371, 3-((2S)-2-hydroxy-3-(8-(3-(6-(2-morpholinoethylamino)pyridin-3-yl)phenylsulfonyl)-1-oxa-8-azaspiro[4.5]decan-3-ylamino)propoxy)-N-methylbenzenesulfonamide]: the IC50 came out at 42 nM.
In the case of `CNS(=O)(=O)c1cccc(OC[C@@H](O)CNC2COC3(CCN(S(=O)(=O)c4cccc(-c5ccc(OCCCN(C)C)nc5)c4)CC3)C2)c1` (stereo partly drawn) [Compound 372, 3-((2S)-3-(8-(3-(6-(3-(dimethylamino)propoxy)pyridin-3-yl)phenylsulfonyl)-1-oxa-8-azaspiro[4.5]decan-3-ylamino)-2-hydroxypropoxy)-N-methylbenzenesulfonamide] it was 41.8 nM.
